The subject of one assay is Pythium ultimum. Description: Threshold concentration test for use of the compounds against Pythium ultimum (infested soil, garden peas). More on the design: key to root evaluation (1-4): 4: white roots without fungous necrosis; 3: white roots, minor fungous necrosis; 2: brown roots, already more pronounced fungous necrosis; 1: heavy fungous necrosis, roots rotted. It is filed as in vivo. Particulars: for root evaluation (1-4): 3 weeks; for number of sound peas: 20 grains per dish, 3 weeks at 20-24° C. The method in brief:
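Garden pea seeds, 20 per dish, went straight into Pythium ultimum-infested soil into which 20% pulverulent formulations had been uniformly blended. Sound plants counted and roots rated 1–4 after three weeks of hothouse growth at 20–24 °C.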

Another assay has as its system Fusarium nivale. In words: Treatment of rye seeds against Fusarium nivale. It is filed as in vivo. The settings on record: 100 g/100 kg; about 4 weeks. Here is the method:
Treatment of rye seeds against Fusarium nivale
Rye seeds with a natural infestation by Fusarium nivale were seeded in earth filled pots and left for germination at about 6° C. Part of the seeds was treated before seeding with the active agents as appears from the subsequent table and part was untreated. After emergence of the seedlings the plants were illuminated with artificial light for 12 hours each day. After about 4 weeks the degree of infestation was determined in percentages. The fungicidal activity was calculated on the basis of the following formula: [formula]
The active agents were used in the form of 20% concentration compositions.

The subject of assay [1] is Tilletia caries. Description: Treatment of oat seeds infested with Tilletia caries (spore germination). It is filed as in vivo.
For assay [2], the system named is Tilletia caries. Description: Seed treatment in open field tests regarding infestation by Tilletia caries (oats). The class given is in vivo. Particulars: summer oats, about 4 months.
The next assay has as its system Helminthosporium gram. The settings on record: about 5 weeks.
Assay [3] deals with Fusarium avenaceum. Description: Inhibition of fungus in a nutrient solution: Fusarium avenaceum.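 Also: 0 means no fungus growth and higher grades mean more surface covered.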 The settings on record: 6 days at 21-23° C. It is filed as cell-based. The procedure, abridged:
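Grape juice/water (1:1) nutrient solution mixed with powdered test agent, then inoculated with conidia. Surface fungal growth scored on a 0–5 scale after 6 days at 21–23 °C.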

A further assay relates to Alternaria solani. Description: Inhibition of fungus in a nutrient solution: Alternaria solani.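 Also: 0 means no fungus growth and higher grades mean more surface covered.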 Particulars: 6 days at 21-23° C. The class given is cell-based.
The test system of a further assay is Penicillium digitatum. In words: Inhibition of fungus in a nutrient solution: Penicillium digitatum.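 Also: 0 means no fungus growth and higher grades mean more surface covered.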 It is filed as cell-based. The settings on record: 6 days at 21-23° C.
The subject of another assay is Botrytis cinerea. In words: Inhibition of fungus in a nutrient solution: Botrytis cinerea.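 Also: 0 means no fungus growth and higher grades mean more surface covered.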 The class given is cell-based. The settings on record: 6 days at 21-23° C.
Assay [4] deals with Fusarium avenaceum. Description: Threshold concentration test in case of Fusarium avenaceum (infested soil, garden peas). The class given is in vivo. Particulars: for number of sound peas: 20 grains per dish, 18 days at 20-24° C.; for root evaluation (1-4): 18 days. The method in brief: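 Soil heavily infested with Fusarium avenaceum was mixed uniformly with a 20% powder formulation of active agent, then sown immediately with 20 garden pea seeds ('Wunder von Kelvedon') per dish. After 18 days in a greenhouse at 20° to 24° C., sound plants were counted and roots scored on a 1–4 scale.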

The subject of a further assay is Plasmopara viticola. In words: Prophylactic leaf treatment of grapevines in the hothouse against Plasmopara viticola. The class given is in vivo. The procedure, abridged:
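Activity derived from average percentage of leaf surface infested per treatment. Plants with 5–8 leaves received preventive spray (20% spray powder formulation), then undersides inoculated with ~20,000 sporangia/ml; held at 22–24 °C with full humidity, reduced to 30–70% for 3–4 days, then saturated one day.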

Another assay has as its system Septoria nodorum. In words: Treatment of oat seeds against Septoria nodorum. Particulars: 50 g active agent/100 kg seeds; 4 weeks. It is filed as in vivo. Here is the method: Effects of the treatment of oat seeds against Septoria nodorum
They were then seeded on a moist substrate for germination. As a control untreated seeds were likewise seeded. At about 6° C. the seed was incubated in an air-conditioned chamber until after 4 weeks the proportion of diseased seeds could be determined and the activity of the fungicidal compounds was calculated on the basis of the following formula: [formula]
The active agents were applied in the form of 20% concentration pulverulent compositions.

The subject of assay [5] is Helminthosporium gramineum. In words: Seed treatment in open field tests for infestation by Helminthosporium gramineum (barley). It is filed as in vivo. Here is the method: Seed treatment in open field tests for infestation by Helminthosporium gramineum
The active agents were used in the form of pulverulent compositions. After about 8 months in case of winter barley and after about 3 months in case of summer barley the infested plants were counted and the activity was calculated by the formula [formula]

A further assay relates to Piricularia oryzae. It is filed as in vivo. Particulars: concentration of active agent 0.1 (percentages); 5 days.
Assay [6] concerns root gall nematodes (Meloidogyne sp.). Description: Threshold concentration test with root gall nematodes (cucumber, infested soil). The class given is in vivo. Particulars: 28 days at 24-27° C. The text has this: Threshold concentration test with root gall nematodes (Meloidogyne sp.)
20% concentration pulverulent active agents as listed in the table below were mixed in a uniform manner with a soil which had been heavily infested by root gall nematodes. After waiting for 3 days the treated soil was placed in two clay dishes of a capacity of 0.5 liter. 10 grain of cucumber seeds of the type "Guntruud" were placed into each dish.
Thereafter, the contents of the dishes were permitted to develop at a temperature of 24° to 27° C. for a time of 28 days in a hothouse. The cucumber roots were then washed out and were examined in a water bath regarding nematode infestation. The reduction of the infestation by the active agents as compared with untreated control material was determined in percentages.
The nematocidal activity was calculated by the formula
A=the infestation in the untreated control material and
B=the infestation after treatment.

The mark [7] stands for this setting: summer barley, 50 g active agent/100 kg barley, about 3 months.
The mark [8] stands for this setting: summer barley, 100 g active agent/100 kg barley, about 3 months.
The mark [9] stands for this setting: winter barley, 50 g active agent/100 kg barley, about 8 months.
Setting [10] is: winter barley, 100 g active agent/100 kg barley, about 8 months.

Where two headings read alike, the source gives them in different places.

This is an account of results in US4281121A, “1,3,4-Thiadiazole-2-carboxylic acid derivatives, process for making the same and fungicidal and nematocidal compositions containing same” (Schering Aktiengesellschaft, priority 1978, dated 1981).

Take `CC[S+]([O-])c1nnc(C(N)=O)s1` (stereo not shown) [5-ethylsulfinyl-1,3,4-thiadiazole-2-carboxamide]: the “root evaluation (1-4)” value in the assay on Pythium ultimum (20 mg/l soil) was 2; with Pythium ultimum (40 mg/l soil) it was 4; in the assay on Pythium ultimum (80 mg/l soil), 4. In addition, the “number of sound peas” value with Pythium ultimum (20 mg/l soil) worked out at 15; in the assay with Pythium ultimum (40 mg/l soil) it was 20; with Pythium ultimum (80 mg/l soil) it was 20. Besides, the “% activity” value in the assay on Fusarium nivale amounted to 93%; in the assay with Tilletia caries [1] (5 g active agent per 100 kg), 78%; with Tilletia caries [1] (10 g active agent per 100 kg), 96%; with Tilletia caries [1] (20 g active agent per 100 kg), 100%; in the assay on Tilletia caries [2] (25 g active agent/100 kg), 100%; with Tilletia caries [2] (50 g active agent/100 kg), 100%. Besides, the “% activity” value in the assay with Helminthosporium gram (10 g active agent per 100 kg) is reported as 99%; in the assay with Helminthosporium gram (20 g active agent per 100 kg), 100%; with Helminthosporium gram (50 g active agent per 100 kg) it was 100%.
`CCS(=O)(=O)c1nnc(C#N)s1` [5-ethylsulfonyl-1,3,4-thiadiazole-2-carbonitrile]: the “fungus development on the surface of the nutrient solution (0-5)” value in the assay with Fusarium avenaceum [3] (0.002%), with Fusarium avenaceum [3] (0.004%), with Alternaria solani (0.002%), with Alternaria solani (0.004%), in the assay on Penicillium digitatum (0.002%) and in the assay on Penicillium digitatum (0.004%) was 0 in each case. Moreover, the “fungus development on the surface of the nutrient solution (0-5)” value was found to be 1 in the assay on Botrytis cinerea (0.002%) and 0 in the assay with Botrytis cinerea (0.004%). The “root evaluation (1-4)” value with Pythium ultimum (20 mg/l soil) is 2; in the assay with Pythium ultimum (40 mg/l soil), 4; with Pythium ultimum (80 mg/l soil), 4; in the assay with Fusarium avenaceum [4] (25 mg/l soil), 4; with Fusarium avenaceum [4] (50 mg/l soil), 4; with Fusarium avenaceum [4] (100 mg/l soil) it was 4. Also, the “number of sound peas” value in the assay on Pythium ultimum (20 mg/l soil) was determined as 19; with Pythium ultimum (40 mg/l soil) it was 20; with Pythium ultimum (80 mg/l soil) it was 20; in the assay with Fusarium avenaceum [4] (25 mg/l soil), 18; with Fusarium avenaceum [4] (50 mg/l soil), 20; in the assay on Fusarium avenaceum [4] (100 mg/l soil), 20. Also, the “% activity” value in the assay on Fusarium nivale was determined as 92%.
For the molecule `C=CCNC(=O)c1nnc(S(=O)(=O)CC)s1` [5-ethylsulfonyl-1,3,4-thiadiazole-2-carboxylic acid-allylamide], the “root evaluation (1-4)” value is 1 in the assay with Pythium ultimum (20 mg/l soil), 4 with Pythium ultimum (40 mg/l soil) and 4 in the assay on Pythium ultimum (80 mg/l soil). Further, the results for the “number of sound peas” value in the assay on Pythium ultimum (20 mg/l soil), with Pythium ultimum (40 mg/l soil) and with Pythium ultimum (80 mg/l soil) were 11, 17 and 16, respectively. The “% activity” value with Plasmopara viticola (concentration of active agent 0.001 (unit not given)) stood at 98%; with Plasmopara viticola (concentration of active agent 0.005 (unit not given)), 96%; in the assay on Plasmopara viticola (concentration of active agent 0.025 (unit not given)), 99.4%; in the assay on Fusarium nivale it was 94%; in the assay with Tilletia caries [1] (10 g active agent per 100 kg), 100%; with Tilletia caries [1] (20 g active agent per 100 kg) it was 100%. Moreover, the “% activity” value with Tilletia caries [1] (50 g active agent per 100 kg) was 100%; with Septoria nodorum, 72%; in the assay with Helminthosporium gram (10 g active agent per 100 kg), 100%; in the assay on Helminthosporium gram (20 g active agent per 100 kg), 100%; with Helminthosporium gram (50 g active agent per 100 kg), 100%; in assay [5] (summer barley, 25 g active agent/100 kg barley, about 3 months) it was 97%. The “% activity” value in [5] (setting [7]) and in assay [5] (setting [8]) was 100% in each case.
For `CCS(=O)(=O)c1nnc(C(=O)N(C)C)s1` [5-ethylsulfonyl-1,3,4-thiadiazole-2-carboxylic acid-dimethylamide], the “% activity” value in the assay with Piricularia oryzae is on record as 90%; in the assay on Fusarium nivale it was 100%; with Tilletia caries [1] (10 g active agent per 100 kg), 100%; in the assay with Tilletia caries [1] (20 g active agent per 100 kg) it was 100%; with Tilletia caries [1] (50 g active agent per 100 kg) it was 100%; with Septoria nodorum it was 86%. In addition, the “% activity” value with Helminthosporium gram (20 g active agent per 100 kg) is 94%; with Helminthosporium gram (50 g active agent per 100 kg), 100%; in [5] (setting [7]) it was 99.5%; in assay [5] (setting [8]), 100%; in [5] (setting [9]), 99.5%; in [5] (setting [10]), 100%. The “root evaluation (1-4)” value in the assay with Pythium ultimum (20 mg/l soil), with Pythium ultimum (40 mg/l soil) and in the assay on Pythium ultimum (80 mg/l soil) was 4 in each case. Moreover, the results for the “number of sound peas” value in the assay on Pythium ultimum (20 mg/l soil), in the assay on Pythium ultimum (40 mg/l soil) and with Pythium ultimum (80 mg/l soil) were 13, 13 and 15, respectively.
Regarding `CCS(=O)(=O)c1nnc(C(=O)NC)s1` [5-ethylsulfonyl-1,3,4-thiadiazole-2-carboxylic acid-methylamide], the “root evaluation (1-4)” value in the assay on Pythium ultimum (20 mg/l soil), in the assay with Pythium ultimum (40 mg/l soil) and in the assay with Pythium ultimum (80 mg/l soil) was 4 throughout. Besides, the “number of sound peas” value is on record as 17 in the assay with Pythium ultimum (20 mg/l soil), 15 with Pythium ultimum (40 mg/l soil) and 19 in the assay on Pythium ultimum (80 mg/l soil). In addition, the “% activity” value in the assay on Fusarium nivale is listed as 100%; with Tilletia caries [1] (10 g active agent per 100 kg), 100%; in the assay on Tilletia caries [1] (20 g active agent per 100 kg), 100%; in the assay with Tilletia caries [1] (50 g active agent per 100 kg), 100%; in the assay on Septoria nodorum, 72%; with Helminthosporium gram (20 g active agent per 100 kg), 91%. Besides, the “% activity” value in the assay with Helminthosporium gram (50 g active agent per 100 kg) stood at 97%; in assay [5] (setting [7]) it was 100%; in assay [5] (setting [8]) it was 100%; in assay [5] (setting [9]) it was 100%; in [5] (setting [10]), 100%.
As to `CSc1nnc(C#N)s1` [5-methylthio-1,3,4-thiadiazole-2-carbonitrile], the entries for the “Percentage reduction of infestation” value in assay [6] (50 mg per liter soil), in assay [6] (100 mg per liter soil) and in assay [6] (200 mg per liter soil) were 95%, 99% and 100%, respectively.
